From patent US11680047B2, “Enhanced erythropoiesis and iron metabolism” (FibroGen, Inc., priority 2003, dated 2023)
Marks after values point to notes of the source that are not given here.

Key:
VCAM-1 = assay: IL-1β induced VCAM-1 expression in HUVEC; assay type: cell-based, human; settings: IL-1β 1 ng/ml, 1 day
Description: To investigate the effect of HIF prolyl hydroxylase inhibition on IL-1β induced VCAM-1 expression, HUVEC (human umbilical vein endothelial cells) were stimulated with IL-1β in the absence or presence of various concentrations of compound B or compound C for 1 day. VCAM expression was then measured.

E-selectin = assay: Cell surface E-selectin (cell-based ELISA) in HUVEC pretreated with compound, then cytokines; design: species or system human; settings: HUVEC pretreated 24 hours
Description: HUVEC were treated with vehicle control or various concentrations of compound B or compound C for 24 hours. Cells were washed and then stimulated with either 1 ng/ml TNF-α, 1 ng/ml IL-1β, or a combination of 1 ng/ml each of TNF-α, IL-1β, and IFN-γ for 4 hours. Cell surface expression of E-selectin was measured by cell-based ELISA.

Hepcidin = Hepcidin mRNA expression in mouse liver (microarray); assay type: in vivo
Description: (§1) Compounds were generally administered orally by gavage or IV administration. Animals treated by oral gavage received a 4-10 ml/kg volume of either 0.5% carboxymethyl cellulose (CMC; Sigma-Aldrich, St. Louis Mo.) with or without 0.1% Polysorbate 80 (0 mg/kg/day) or varying doses of a compound of the present invention (e.g., a HIF prolyl hydroxylase inhibitor) in 0.5% CMC, with or without 0.1% Polysorbate 80, using various dosing regimens. Blood samples were collected at appropriate intervals during treatment from, e.g., tail vein (rats), or abdominal vein or cardiocentesis (mice or rats). Generally, animals were anesthetized with isoflurane and blood samples were collected into MICROTAINER serum separator tubes (Becton-Dickinson, Franklin Lakes N.J.). For measurement of serum components, the tubes were incubated at room temperature for 30 minutes, and then centrifuged at 8,000 rpm at 4° C. for 10 minutes. The serum fraction was then processed and analyzed for the presence of specific components, e.g., serum iron (assay performed by Quality Clinical Labs, Mountain View, Calif.). For determination of hematocrit, blood samples were collected into MICROTAINER EDTA-2K tubes (Becton-Dickinson); EDTA-blood was then drawn into 75 mm×1.1-1.2 mm I.D. capillary tubes (Chase Scientific Glass, Inc., Rockwood Tenn.) to approximately % length, one end of the tube was sealed with CRITOSEAL sealant (Sherwood Medical Company), and the tubes were centrifuged in a J-503M MICROHEMATOCRIT centrifuge (Jorgensen Laboratories, Inc., Loveland Colo.) at 12,000 rpm for 5 minutes. Hematocrit was read against a reader card. When indicated, complete blood count (CBC) analysis, including blood hemoglobin level, reticulocyte number, and hematocrit, was performed by Quality Clinical Labs (Mountain View, Calif.).
Swiss Webster male mice were treated as described above with a single dose of 0.5% CMC (Sigma-Aldrich) (0 mg/kg) or 100 mg/kg compound A. At 4, 8, 16, 24, 48, or 72 hours post-administration, animals were anesthetized, sacrificed, and tissue samples of kidney, liver, brain, lung, and heart were isolated and stored in RNALATER solution (Ambion) at −80° C. Alternatively, animals were treated to 4 consecutive daily doses of 0.5% CMC (0 mg/kg/day), 7.5 mg/ml compound A in 0.5% CMC (30 mg/kg/day), or 25 mg/ml compound A in 0.5% CMC (100 mg/kg/day). Four hours after administration of the final dose, animals were anesthetized, sacrificed, and approximately 150 mg of liver and each kidney were isolated and stored in RNALATER solution (Ambion) at −20° C.
RNA isolation was carried out using the following protocol. A section of each organ was diced, 875 μl of RLT buffer (RNEASY kit; Qiagen Inc., Valencia Calif.) was added, and the pieces were homogenized for about 20 seconds using a rotor-stator POLYTRON homogenizer (Kinematica, Inc., Cincinnati Ohio). The homogenate was micro-centrifuged for 3 minutes to pellet insoluble material, the supernatant was transferred to a new tube and RNA was isolated using an RNEASY kit (Qiagen) according to the manufacturer's instructions. The RNA was eluted into 80 μL of water and quantitated with RIBOGREEN reagent (Molecular Probes, Eugene Oreg.). The absorbance at 260 and 280 nm was measured to determine RNA purity and concentration.
Alternatively, tissue samples were diced and homogenized in TRIZOL reagent (Invitrogen Life Technologies, Carlsbad Calif.) using a rotor-stator POLYTRON homogenizer (Kinematica). Homogenates were brought to room temperature, 0.2 volumes chloroform was added, and samples were mixed vigorously. Mixtures were incubated at room temperature for several minutes and then were centrifuged at 12,000 g for 15 min at 4° C. The aqueous phase was collected and 0.5 volumes of isopropanol were added. Samples were mixed, incubated at room temperature for 10 minutes, and centrifuged for 10 min at 12,000 g at 4° C. […]

[1] = Total serum iron levels in rats treated twice weekly for 93 days; assay type: in vivo, rat
Description: as §1
Male and female rats were treated twice weekly (Monday and Thursday) with various concentrations (0, 20, 60, or 150 mg/kg) of compound A for 93 days. Total serum iron levels were determined.

Structure (SMILES)	inhibition of IL-1β induced VCAM-1 expression (VCAM-1)	induction of cell surface E-selectin expression (E-selectin; then 1 ng/ml TNF-α or 1 ng/ml IL-1β for 4 hours)	cell surface E-selectin expression (E-selectin; then TNF-α, IL-1β and IFN-γ, 1 ng/ml each, 4 hours)	Hepcidin (relative mRNA levels) (Hepcidin; animal study I, multi high dose)	Hepcidin (relative mRNA levels) (Hepcidin; animal study II, multi high dose)	Hepcidin (relative mRNA levels) (Hepcidin; animal study II, multi low dose)	Hepcidin (relative mRNA levels) (Hepcidin; animal study III, 4 hour)	Hepcidin (relative mRNA levels) (Hepcidin; animal study III, 8 hour)	Hepcidin (relative mRNA levels) (Hepcidin; animal study III, 16 hour)	Serum Iron Female Rats (Mean +/− SD) ([1]; 20 mg/kg twice weekly)	Serum Iron Female Rats (Mean +/− SD) ([1]; 60 mg/kg twice weekly)	Serum Iron Female Rats (Mean +/− SD) ([1]; 150 mg/kg twice weekly)	Serum Iron Male Rats (Mean +/− SD) ([1]; 20 mg/kg twice weekly)	Serum Iron Male Rats (Mean +/− SD) ([1]; 60 mg/kg twice weekly)	Serum Iron Male Rats (Mean +/− SD) ([1]; 150 mg/kg twice weekly)
O=C(O)CNC(=O)c1ncc2cc(Oc3ccccc3)ccc2c1O [Compound B, [(4-Hydroxy-7-phenoxy-isoquinoline-3-carbonyl)-amino]-acetic acid]	does-dependent inhibition of IL-1β induced VCAM-1 expression	inhibited the induction of cell surface E-selectin expression	decreased E-selectin expression												
O=C(O)CNC(=O)c1nc(Cl)c2ccccc2c1O [Compound A, [(1-Chloro-4-hydroxy-isoquinoline-3-carbonyl)-amino]-acetic acid]				0.275	0.703	0.129	0.672	0.305	0.119	505 +/− 41 * µg/dL	445 +/− 46 * µg/dL	399 ± 117 µg/dL	198 ± 64 µg/dL	357 +/− 111 * µg/dL	307 +/− 142 * µg/dL
